According to patent US9927437B2, “Treating neurodegenerative disease” (THE BRIGHAM AND WOMEN'S HOSPITAL, INC., priority 2013, dated 2018):

Legend:
Ly6C^high monocytes = test: Viability assay, monocytes; assay type: cell-based, mouse; conditions: 1 h pre-treatment, 3 h
astrocytes = test: mRNA expression in astrocytes isolated from EAE NOD mice (nCounter, qPCR); assay type: in vivo, mouse
Description: Mononuclear cells were isolated from the CNS as previously described^50 with minor modifications. Naïve and EAE mice were euthanatized, and then subjected to perfusion through the left ventricle with ice-cold sterile PBS. Brains and spinal cord were then removed, minced and enzymatically dissociated with 0.05% (w/v) collagenase type III (Worthington Biochemical), 0.5% Dispase II (Roche Applied Science), 40 μg/ml DNAse I, 20 mM HEPES in HBSS) for 30 min at 37 C to make a suspension of single cells. Enzymes were inactivated with 20 ml of Ca^2+/Mg^2+-free HBSS containing 2 mM EDTA and 20 mM HEPES. The digested tissue was triturated and passed through a […] cell strainer. Cells were centrifuged and resuspended in 30% isotonic Percoll (GE Healthcare) and 40 μg/ml DNAse I, underlined by 70% isotonic Percoll, and centrifuged at 1000×g at 4° C. for 25 min. Cells were collected from the 70%-30% interphase, and sorted by FACS Aria.
These purification procedures are based on previously described dissociation and purification protocols^50,51. Isolated CNS cells, were incubated with anti-Mouse CD16/CD32 for 15 min on ice to block the Fc receptors, and stained with fluorochrome-conjugated antibody for CD11b (M1/70), CD45(90), CD3 (145-2C11), CD4 (GK1.5), and Ly6C (HK1.4), and Biotion-conjugated GSL I—isolectin B4 (Vector labs), CD105 (N418), CD140a (APA5), CD11c (N418), F4/80 (BM8), O4 (O4, Miltenyi Biotec), and CD19 (eBio1D3), and un-conjugated antibodies recognizing mouse MOG (8-18C5, Millipore), O1 (O1), and Galactocerebroside (mGlaC, Millipore). All antibodies were from Ebioscience, unless otherwise mentioned (clone number, when relevant, in parentheses). Cells were washed and incubated PE-conjugated Streptavidin and R-Phycoerythrin AffiniPure F(ab′)2 fragment of Goat Anti-Mouse IgG+IgM (H+L) (Jackson ImmunoResearch laboratories) for 20 min at 4 C in the dark. Cells were washed, incubated with 7-AAD or Fixable Viability Dye eFluor® 450 (if cells were to be used for intracellular staining), for exclusion of dead cells (FIG. S3A), and sorted as following. Microglia were sorted as CD11b^+ cells with low CD45 expression and low Ly6C (CD11b+/CD45^low/Ly6C^low), while the inflammatory monocytes were considered as CD11b^+/Ly6C^high 52. T-cells were sorted as CD3^+CD4^+ cells. Astrocytes were isolated following the depletion of lymphocytes, microglia, monocytes (FIG. S3B), and oligodendrocytes, and lymphocytes (T-cells, B-cells, and NK cells) (FIG. S3C). […] We confirmed that we had isolated a relatively pure populations of astrocytes by qPCR for the astrocyte markers^44,51 gfap, aldh1l1 and aqp4, and found them to be exclusively expressed in the astrocyte fraction (in a similar expression pattern to that of GFP^+ astrocytes sorted from Tg(GFP-hGFAP) FVB transgenic mice^49) (FIG. S3E). We used an additional cohort of markers to explore for presence of immune cells [microglia/monocytes cells—itgam (CD11b), and emr1 (F4/80), dendritic cells—itgax (CD11c), NK cells—Klrb1c (Nk1.1), T-cells—cd3, and B-cells—cd19], oligodendrocytes (mog, mbp), and neurons (syt1, snap25) (FIG. S3F, G).
100-200 ng of total RNA was hybridized with reporter and capture probes for nCounter Gene Expression code sets (Mouse Inflammation Kit, or a custom made astrocyte-oriented probe set (Table S1)), according to manufacturer's instructions (NanoString Technologies). Data were normalized to spiked positive controls and housekeeping genes (nSolver Analysis system). Transcript counts less than the mean of the negative control transcripts plus 2 standard deviations for each sample were considered background.
Nanostring generated gene expression data were analyzed by use of the Expander 6.06 platform^53. Genes were clustered using the unbiased CLICK algorithm, and each cluster was further analyzed for enrichments in transcription factors binding sites (promoter analysis).

[1] = tested on: microglia and CNS-infiltrating monocytes; test: mRNA expression in microglia and CNS-infiltrating monocytes from EAE NOD mice; assay type: in vivo, mouse
Excerpt: FIGS. 5a-m. B4GALT6 in astrocytes regulates the activation of microglia and CNS-infiltrating monocytes. (a) Heatmap depicting mRNA expression, as determined by nCounter Nanostring analysis, in microglia from naïve or EAE NOD mice treated with PDMP or vehicle. Representative data of three independent experiments. Statistical analysis by Student's t-test. (b) qPCR analysis of ccl5, il1b, opn, nos2, cd40, and H2-Aa gene expression relative to Gapdh. (c, d) Mean normalized expression of genes associated with M1- or M2-phenotype in microglia (Table 3) (c) and Ly6C^high monocytes (d). Statistical analysis by Student's t-test. (e-h) primary microglia were pre-treated with PDMP, LacCer, or vehicle, followed by activation with LPS/IFNγ for 6 h or left un-treated (control) as in (FIG. 3a). mRNA expression was determined by nCounter Nanostring analysis (e, g), and microglial viability was determined (f, h). Representative data of five independent experiments. (i) Mixed glia cultures were treated with mild trypsin/EDTA (T/E) to remove the astrocyte monolayer leaving only the microglia attached to the plate, or left un-treated. Cultures were pre-treated with PDMP, LacCer or vehicle, and activated with LPS/IFNγ for 6 h. Following activation, both cultures were washed, and incubated with mild T/E to remove the astrocytes; thus, leaving only the microglia (MG) attached to the plates. RNA was harvested from microglia treated in the absence [MG (pure)] or presence [MG (mixed)] of astrocytes and gene expression was analyzed by qPCR for the expression ccl2, ccl5 and nos2 relative to gapdh. Data present the relative effect of PDMP (left panel) or LacCer (right panel) pre-treatment on LPS/IFNγ-triggered gene induction, from five independent experiments. Statistical analysis by Student's t-test. (j) Mixed glia were pre-treated with indicated blocking antibodies or appropriate isotype controls (25 μg/ml) and LacCer […] or vehicle control, and then activated with LPS/IFNγ for 6 h. Microglia were isolated as in (i), and microglial-nos2 expression was determined by qRT relative to gapdh and presented as in (i). Representative data of three independent experiments. (k) ChIP analysis of the interaction of NF-κB, and IRF-1 with the csf2 promoter in primary cultured astrocytes. (l, m) Expression csf2 in astrocytes (l) and nos2 in microglial cells (m) isolated form the CNS of chronic EAE NOD mice, 10 days after the i.c.v. injection of astrocytes-specific shRNA lentivirus as in (FIG. 3j). Data from two independent experiments. For all data, means and s.e.m. are shown. *P<0.05, **P<0.01, ***P<0.001 and n.s. not significant.
Mononuclear cells were isolated from the CNS as previously described^50 with minor modifications. […]

[2] = chronic NOD EAE, 10 days after i.c.v. shRNA lentivirus

In the case of `CCCCCCCCCC(=O)N[C@H](CN1CCOCC1)[C@H](O)c1ccccc1` [PDMP, D-threo-1-phenyl-2-decanoylamino-3-morpholino-1-propanol], the “viability of purified Ly6C^high monocytes” value (Ly6C^high monocytes) was “did not affect”, the “expression of demyelination-associated genes in astrocytes” value (astrocytes; NOD EAE progressive phase) was “significant reduction” and the “expression of remyelination-associated genes in astrocytes” value (astrocytes; NOD EAE progressive phase) was “increased expression”. The “expression of representative cluster 2 genes (ccl2, ccl5, cxcl10, il1b, nos2, opn, H2-Aa, vim) in astrocytes” value (astrocytes; NOD EAE progressive phase (day 100), qPCR) was “suppressive effects”, the “irf1 and relB expression in astrocytes” value (astrocytes; NOD EAE, qPCR) was “subsequent suppression” and the “M1-associated genes in microglia and CNS-infiltrating monocytes” value ([1]; NOD EAE) was “significant down regulation”. The “M2-associated genes in microglia and CNS-infiltrating monocytes” value ([1]; NOD EAE) was “up-regulation” and the “expression of genes associated with microglia activation” value ([1]; microglia from NOD EAE progressive phase) was “reduced the expression”.

In the case of lactosylceramide [LacCer], the “viability of purified Ly6C^high monocytes” value (Ly6C^high monocytes) was “did not affect”.

For “shB4galt6: lentivirus-delivered shRNA against b4galt6 (TRCN0000334278; SEQ ID NO:3) (guide CGATGGACTGAACAATTTATTCTCGAGAATAAATTGTTCAGTCCACG)”, the “b4galt6 and b4galt5 expression in astrocytes” value (astrocytes; NOD EAE, i.c.v. lentivirus at day 35, qPCR) was “astrocyte-specific knock-down”, the “csf2 expression in astrocytes” value (astrocytes; [2]) was “significant decrease” and the “nos2 expression in microglia” value [1, 2] was “decreased nos2 expression”.
